Results published in US20230085307A1, “PYRIDAZINONE COMPOUND AND HERBICIDE” (NISSAN CHEMICAL CORPORATION, priority 2019, published 2023).

Assays:
late watergrass [1] = assay: Test Example 1: herbicidal activity, application before weed generation under submerged conditions (Table 16, symbol A); assay type: in vivo, late watergrass (Echinochloa oryzicola); details: 320 g/ha applied herbicide
In short: (§1)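 Alluvial soil was flooded to 4 cm depth, weed seeds were sown mixed and 2.5-leaf rice seedlings were transplanted. On sowing day, the compound's emulsion, diluted in water to a set dose, was applied to the water surface. Plants grew at 25–30 °C and were scored 0–5 after three weeks.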

Japanese bulrush = assay: Test Example 1: herbicidal activity, application before weed generation under submerged conditions (Table 16, symbol B); assay type: in vivo, Japanese bulrush (Schoenoplectus juncoides); details: 320 g/ha applied herbicide
In short: as §1

late watergrass [2] = assay: Test Example 2: herbicidal activity, application during weed generation under submerged conditions (Table 17, symbol A); assay type: in vivo, late watergrass (Echinochloa oryzicola); details: AAH 320 g/ha; application during weed generation, submerged conditions
In short: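 Steps: fill Wagner pots with alluvial soil; add water to give 4 cm depth; sow the species mixed; grow under glass at 25–30° C.; at 1–2 leaves apply water-diluted emulsion formulation to the water surface at a fixed herbicide amount; score after 3 weeks.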

Chinese sprangletop = assay: Test Example 3: herbicidal effect by foliage application, Wagner pot (Table 18, symbol D); assay type: in vivo, chinese sprangletop (Leptochloa chinensis); details: 320 g/ha
In short: (§2)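 Plants were sown in alluvial soil held under 0.1–0.5 cm standing water and grown 14 days in a greenhouse at 25–30 °C. An emulsifiable formulation, water-diluted to the set dose, was then sprayed onto the foliage, and effects were scored three weeks later using previously defined criteria.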

rice flat sedge = assay: Test Example 3: herbicidal effect by foliage application, Wagner pot (Table 18, symbol E); assay type: in vivo, rice flat sedge (Cyperus iria); details: 320 g/ha
In short: as §2

southern crabgrass = assay: Test Example 4: herbicidal effect by soil treatment (Table 19, symbol F); assay type: in vivo, southern crabgrass (Digitaria ciliaris); details: 320 g/ha
In short: (§3)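 Three weeks of greenhouse growth at 25° C. to 30° C. followed a uniform surface spray of water-diluted emulsion at a predetermined herbicide amount. Seeds had been sown beforehand under about 1.5 cm of sterilized diluvial soil. Grading followed criteria set out in an earlier test.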

wild oat [3] = assay: Test Example 4: herbicidal effect by soil treatment (Table 19, symbol I); assay type: in vivo, wild oat (Avena fatua); details: 320 g/ha
In short: as §3

Italian ryegrass [4] = assay: Test Example 4: herbicidal effect by soil treatment (Table 19, symbol K); assay type: in vivo, Italian ryegrass (Lolium multiflorum); details: 320 g/ha
In short: as §3

windgrass = assay: Test Example 4: herbicidal effect by soil treatment (Table 19, symbol L); assay type: in vivo, windgrass (Apera spica-venti); details: 320 g/ha
In short: as §3

lambsquarters = assay: Test Example 4: herbicidal effect by soil treatment (Table 19, symbol O); assay type: in vivo, lambsquarters (Chenopodium album); details: 320 g/ha
In short: as §3

chickweed = assay: Test Example 4: herbicidal effect by soil treatment (Table 19, symbol P); assay type: in vivo, common chickweed (Stellaria media); details: 320 g/ha
In short: as §3

green foxtail = assay: Test Example 5: herbicidal effect by foliage application, plastic box (Table 20, symbol G); assay type: in vivo, green foxtail (Setaria viridis); details: foliage application, 320 g/ha; for effect on green foxtail (G): 3 weeks after application
In short: (§4)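 Plants sown in sterilized diluvial soil and grown 14 days in a greenhouse at 25° C to 30° C, then sprayed on the foliage with the compound's emulsion diluted in water to a predetermined herbicide amount. Injury to weeds and crops scored three weeks after application on a visual rating scale.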

barnyard grass = assay: Test Example 5: herbicidal effect by foliage application, plastic box (Table 20, symbol H); assay type: in vivo, barnyard grass (Echinochloa crus-galli); details: foliage application, 320 g/ha; for effect on barnyard grass (H): 3 weeks after application
In short: as §4

wild oat [5] = assay: Test Example 5: herbicidal effect by foliage application, plastic box (Table 20, symbol I); assay type: in vivo, wild oat (Avena fatua); details: foliage application, 320 g/ha; for effect on wild oat (I): 3 weeks after application
In short: as §4

blackgrass = assay: Test Example 5: herbicidal effect by foliage application, plastic box (Table 20, symbol J); assay type: in vivo, blackgrass (Alopecurus myosuroides); details: foliage application, 320 g/ha; for effect on blackgrass (J): 3 weeks after application
In short: as §4

Italian ryegrass [6] = assay: Test Example 5: herbicidal effect by foliage application, plastic box (Table 20, symbol K); assay type: in vivo, Italian ryegrass (Lolium multiflorum); details: foliage application, 320 g/ha; for effect on Italian ryegrass (K): 3 weeks after application
In short: as §4

velvetleaf = assay: Test Example 5: herbicidal effect by foliage application, plastic box (Table 20, symbol M); assay type: in vivo, velvetleaf (Abutilon theophrasti); details: foliage application, 320 g/ha; for effect on velvetleaf (M): 3 weeks after application
In short: as §4

[7] = evaluated three weeks after application

Structure (SMILES) | Herbicidal effect on A: late watergrass (grade 0-5) (late watergrass [1]) | Herbicidal effect on B: Japanese bulrush (grade 0-5) (Japanese bulrush) | herbicidal effect rating, A: late watergrass (late watergrass [2]) | herbicidal effect on D (Chinese sprangletop), rating 0-5 (Chinese sprangletop) | herbicidal effect on E (rice flat sedge), rating 0-5 (rice flat sedge) | herbicidal effect rating, F: southern crabgrass (southern crabgrass) | herbicidal effect rating, I: wild oat (wild oat [3]) | herbicidal effect rating, K: Italian ryegrass (Italian ryegrass [4]) | herbicidal effect rating, L: windgrass (windgrass) | herbicidal effect rating, O: lambsquarters (lambsquarters) | herbicidal effect rating, P: chickweed (chickweed) | effect on green foxtail (G) (green foxtail) | effect on barnyard grass (H) (barnyard grass) | effect on wild oat (I) (wild oat [5]) | effect on blackgrass (J) (blackgrass) | effect on Italian ryegrass (K) (Italian ryegrass [6]) | effect on velvetleaf (M) (velvetleaf) | also measured
Cc1nn(C)c(=O)c(-c2c(-c3ccc(OC(C)C)cc3)sc3ccc(F)cc23)c1O [2-034] | 3 (Herbicidal rate of 40% or more and less than 70%) | 4 (Herbicidal rate of 70% or more and less than 90%) | 1 (Herbicidal rate of 5% or more and less than 20%) | 0 (Herbicidal rate of 5% or less (almost no effect)) | 5 (Herbicidal rate of 90% or more (almost completely withered)) | 5 (Herbicidal rate of 90% or more (almost completely withered)) | 0 (Herbicidal rate of 5% or less (almost no effect)) | 1 (Herbicidal rate of 5% or more and less than 20%) | 0 (Herbicidal rate of 5% or less (almost no effect)) | 5 (Herbicidal rate of 90% or more (almost completely withered)) | 4 (Herbicidal rate of 70% or more and less than 90%) | 5 (Herbicidal rate of 90% or more (almost completely withered)) | 5 (Herbicidal rate of 90% or more (almost completely withered)) | 3 (Herbicidal rate of 40% or more and less than 70%) | 5 (Herbicidal rate of 90% or more (almost completely withered)) | 5 (Herbicidal rate of 90% or more (almost completely withered)) | 5 (Herbicidal rate of 90% or more (almost completely withered)) | 
CCCCOc1ccc(-c2sc3ccc(F)cc3c2-c2c(O)c(C)nn(C)c2=O)cc1 [2-036] | 3 (Herbicidal rate of 40% or more and less than 70%) | 4 (Herbicidal rate of 70% or more and less than 90%) | 0 (Herbicidal rate of 5% or less (almost no effect)) | 3 (Herbicidal rate of 40% or more and less than 70%) | 5 (Herbicidal rate of 90% or more (almost completely withered)) | 2 (Herbicidal rate of 20% or more and less than 40%) | 0 (Herbicidal rate of 5% or less (almost no effect)) | 0 (Herbicidal rate of 5% or less (almost no effect)) | 0 (Herbicidal rate of 5% or less (almost no effect)) | 5 (Herbicidal rate of 90% or more (almost completely withered)) | 3 (Herbicidal rate of 40% or more and less than 70%) | 5 (Herbicidal rate of 90% or more (almost completely withered)) | 5 (Herbicidal rate of 90% or more (almost completely withered)) | 4 (Herbicidal rate of 70% or more and less than 90%) | 4 (Herbicidal rate of 70% or more and less than 90%) | 3 (Herbicidal rate of 40% or more and less than 70%) | 5 (Herbicidal rate of 90% or more (almost completely withered)) | 
CCCC(=O)Oc1c(C)nn(C)c(=O)c1-c1c(-c2ccc(OC(F)(F)F)cc2)sc2ccc(F)cc12 [2-046] | 4 (Herbicidal rate of 70% or more and less than 90%) | 4 (Herbicidal rate of 70% or more and less than 90%) | 1 (Herbicidal rate of 5% or more and less than 20%) | 3 (Herbicidal rate of 40% or more and less than 70%) | 5 (Herbicidal rate of 90% or more (almost completely withered)) | 2 (Herbicidal rate of 20% or more and less than 40%) | 0 (Herbicidal rate of 5% or less (almost no effect)) | 3 (Herbicidal rate of 40% or more and less than 70%) | 0 (Herbicidal rate of 5% or less (almost no effect)) | 5 (Herbicidal rate of 90% or more (almost completely withered)) | 5 (Herbicidal rate of 90% or more (almost completely withered)) | 5 (Herbicidal rate of 90% or more (almost completely withered)) | 5 (Herbicidal rate of 90% or more (almost completely withered)) | 0 (Herbicidal rate of 5% or less (almost no effect)) | 0 (Herbicidal rate of 5% or less (almost no effect)) | 4 (Herbicidal rate of 70% or more and less than 90%) | 5 (Herbicidal rate of 90% or more (almost completely withered)) | 
Cc1nn(C)c(=O)c(-c2c(-c3ccc(OCCF)cc3)sc3ccc(F)cc23)c1O [2-047] | 3 (Herbicidal rate of 40% or more and less than 70%) | 3 (Herbicidal rate of 40% or more and less than 70%) | 0 (Herbicidal rate of 5% or less (almost no effect)) | 4 (Herbicidal rate of 70% or more and less than 90%) | 5 (Herbicidal rate of 90% or more (almost completely withered)) | 5 (Herbicidal rate of 90% or more (almost completely withered)) | 2 (Herbicidal rate of 20% or more and less than 40%) | 1 (Herbicidal rate of 5% or more and less than 20%) | 0 (Herbicidal rate of 5% or less (almost no effect)) | 5 (Herbicidal rate of 90% or more (almost completely withered)) | 4 (Herbicidal rate of 70% or more and less than 90%) | 5 (Herbicidal rate of 90% or more (almost completely withered)) | 5 (Herbicidal rate of 90% or more (almost completely withered)) | 3 (Herbicidal rate of 40% or more and less than 70%) | 4 (Herbicidal rate of 70% or more and less than 90%) | 4 (Herbicidal rate of 70% or more and less than 90%) | 5 (Herbicidal rate of 90% or more (almost completely withered)) | 
Cc1nn(C)c(=O)c(-c2c(-c3ccc(OCC(F)(F)F)cc3)sc3ccc(F)cc23)c1O [2-049] | 2 (Herbicidal rate of 20% or more and less than 40%) | 3 (Herbicidal rate of 40% or more and less than 70%) | 0 (Herbicidal rate of 5% or less (almost no effect)) | 5 (Herbicidal rate of 90% or more (almost completely withered)) | 5 (Herbicidal rate of 90% or more (almost completely withered)) | 4 (Herbicidal rate of 70% or more and less than 90%) | 0 (Herbicidal rate of 5% or less (almost no effect)) | 4 (Herbicidal rate of 70% or more and less than 90%) | 5 (Herbicidal rate of 90% or more (almost completely withered)) | 5 (Herbicidal rate of 90% or more (almost completely withered)) | 5 (Herbicidal rate of 90% or more (almost completely withered)) |  |  |  |  |  |  | herbicidal effect on G: green foxtail (green foxtail; [7]): 5 (Herbicidal rate of 90% or more (almost completely withered)); herbicidal effect on H: barnyard grass (barnyard grass; [7]): 5 (Herbicidal rate of 90% or more (almost completely withered)); herbicidal effect on I: wild oat (wild oat [5]; [7]): 5 (Herbicidal rate of 90% or more (almost completely withered)); herbicidal effect on J: blackgrass (blackgrass; [7]): 5 (Herbicidal rate of 90% or more (almost completely withered)); herbicidal effect on K: Italian ryegrass (Italian ryegrass [6]; [7]): 5 (Herbicidal rate of 90% or more (almost completely withered)); herbicidal effect on M: velvetleaf (velvetleaf; [7]): 5 (Herbicidal rate of 90% or more (almost completely withered))
